The source of these data is publication PMC3653934, “Identification of Adiponectin Receptor Agonist Utilizing a Fluorescence Polarization Based High Throughput Assay” (PLoS ONE, 2013).

The IC50 is the midpoint of a concentration-inhibition curve.

A value given as a limit tells only on which side of the number the result lay.

In one assay the test system is MDA-MB-231 cells. The assay is described as follows: Cell viability assay (CellTiter-Blue) in MDA-MB-231 cells. It is filed as cell-based. Particulars: Homo sapiens, MDA-MB-231; 72 h, 20 µM to 1.2 nM; read-out: IC50 (µM) MDA-MB-231 cells, cell viability. On the procedure:
(§1) All cell lines were obtained from the American Type Culture Collection (ATCC). MCF-7 and MDA-MB-231 cells were maintained in DMEM containing 10% fetal bovine serum and supplied with 1% penicillin/streptomycin. All cells were maintained in a 5% CO2 atmosphere at 37°C.
(§2) The effects of the lead compounds on cell proliferation were tested in MCF-7 and MDA-MB-231 cells. Cells were grown to 80% confluence, harvested and aliquoted into 384-well plates in a total volume of 45 µl per well. The outer wells were inoculated with sterile water to minimize evaporation from the sample wells. Cells were allowed to attach overnight and 5 µl culture media containing either vehicles or drug were added. Cell proliferation was evaluated using CellTilter-Blue reagent (Promega, China) according to manufacturer’s instructions after 72-h incubation. Fluorescence was measured with an excitation at 530 nm and emission at 590 nm. After background subtraction, cell viability values were normalized to vehicle controls and expressed as percentage of the mean of the relative vehicle controls.
(§3) To further confirm the agonistic activity of hit compounds, MDA-MB-231 and MCF-7 cells were treated with different concentrations of g-Ad or drug (20 µM to 1.2 nM) for 72 hours and cell viability was measured. Thus, four compounds (arctiin, (-)-arctigenin, matairesinol and gramine) that show agonistic activity against adiponectin receptor 1 and four compounds (deoxyschizandrin, taxifoliol, syringing and parthenolide) that show agonistic activity against adiponectin receptor 2 were identified.
(In general: The colour change of resazurin is a common sign of viable cells or microbes.)

In the next assay the test system is MCF-7 cells. The experiment in a line: Cell viability assay (CellTiter-Blue) in MCF-7 cells. It is filed as cell-based. Conditions: Homo sapiens, MCF7; 72 h, 20 µM to 1.2 nM; read-out: IC50 (µM) MCF-7 cells, cell viability. On the procedure: as §1, §2, §3

For `COc1cc2c(c(OC)c1OC)-c1c(cc(OC)c(OC)c1OC)C[C@H](C)[C@H](C)C2` [Compound 4, Deoxyschizandrin], the IC50 in the assay on MDA-MB-231 cells was > 10 µM; in the assay on MCF-7 cells, 5.5 ± 0.6 µM.

Regarding `CN(C)Cc1c[nH]c2ccccc12` [Compound 9, Gramine], the results for the concentration for half-maximal inhibition (IC50) in the assay on MDA-MB-231 cells and with MCF-7 cells were 9.6 ± 0.9 µM and 0.1 ± 0.1 µM, respectively.

Regarding `C=C1C(=O)O[C@H]2[C@H]1CC/C(C)=C/CC[C@@]1(C)O[C@@H]21` [Compound 7, Parthenolide], the IC50 in the assay with MDA-MB-231 cells was > 10 µM; in the assay with MCF-7 cells, 2.5 ± 0.4 µM.

As for `COc1ccc(C[C@H]2COC(=O)[C@@H]2Cc2ccc(O[C@@H]3O[C@H](CO)[C@@H](O)[C@H](O)[C@H]3O)c(OC)c2)cc1OC` [Compound 1, Arctiin], the IC50 in the assay on MDA-MB-231 cells is 3.2 ± 0.3 µM; in the assay on MCF-7 cells, > 10 µM.

As to `COc1cc(C[C@H]2COC(=O)[C@@H]2Cc2ccc(O)c(OC)c2)ccc1O` [Compound 3, Matairesinol], the values for the IC50 with MDA-MB-231 cells and in the assay with MCF-7 cells were 1.8 ± 0.6 µM and > 10 µM, respectively.
